Entries after “also recorded” stand apart in the source; their conditions may differ. Ends that are not written are not given here.
Tests used:
[1] = Stability of antagonistic activity in plasma
Protocol: (§1) Aliquots were collected at different time points and used in ELISA measuring inhibition of EphA4 AP-ephrin-A5 Fc binding. For ELISA, ephrin-A5 Fc was immobilized at 1 μg/mL for 1 hour at room temperature in protein A-coated 96-well plates as described above. […] The amount of bound AP fusion protein was quantified by measuring the absorbance at 280 nm. The optical density obtained from wells coated with Fc and incubated with EphA4 AP and plasma or serum was subtracted as the background.

[2] = target: T1, EphA4 (Mus musculus, UniProt Q03137); test: ELISA, inhibition of ephrin-A5 AP binding to immobilized EphA4 Fc; conditions: C-terminally amidated peptides
T1 construct: mouse EphA4 ectodomain fused to Fc; purchased R&D Systems

[3] = system: other Eph receptors (EphA2, EphA3, EphA5, EphA6, EphA7, EphA8, EphB1, EphB2, EphB3, EphB4, EphB6); test: Eph receptor selectivity ELISA (ephrin-A5 AP / ephrin-B2 AP binding to Eph receptor Fc); conditions: concentration about 100-fold higher than the IC50 value for EphA4
[4] = Stability of antagonistic activity in cerebrospinal fluid (CSF); conditions: rat, depending on the conditions, units inside the value
Protocol: as §1

[5] = system: HT22 mouse hippocampal neurons; test: MTT cytotoxicity assay; type: cell-based; conditions: HT22 cells, 24 hours, 30 μM
Protocol: HT22 mouse hippocampal neurons were grown in DMEM supplemented with 10% FBS, 1 mM sodium pyruvate and antibiotics. […] The cells were then incubated for 2 hours in 5 mg/mL MTT (Sigma-Aldrich) in PBS at 37° C. in a CO2 incubator. The resulting formazan crystals were solubilized by addition of 100% DMSO and OD570 was measured.

[6] = in vitro; conditions: rat, Half-life (t1/2) CSF
Protocol: as §1

[7] = in vitro; conditions: mouse, plasma, Half-life (t1/2) Plasma
Protocol: as §1

[8] = target: EphA4 (Homo sapiens, UniProt P54764); conditions: background statement; cited from earlier work
[9] = mouse, plasma, Half-life (t1/2) Plasma
Protocol: as §1

T1 sequence (Q03137 20-547 limits assumed): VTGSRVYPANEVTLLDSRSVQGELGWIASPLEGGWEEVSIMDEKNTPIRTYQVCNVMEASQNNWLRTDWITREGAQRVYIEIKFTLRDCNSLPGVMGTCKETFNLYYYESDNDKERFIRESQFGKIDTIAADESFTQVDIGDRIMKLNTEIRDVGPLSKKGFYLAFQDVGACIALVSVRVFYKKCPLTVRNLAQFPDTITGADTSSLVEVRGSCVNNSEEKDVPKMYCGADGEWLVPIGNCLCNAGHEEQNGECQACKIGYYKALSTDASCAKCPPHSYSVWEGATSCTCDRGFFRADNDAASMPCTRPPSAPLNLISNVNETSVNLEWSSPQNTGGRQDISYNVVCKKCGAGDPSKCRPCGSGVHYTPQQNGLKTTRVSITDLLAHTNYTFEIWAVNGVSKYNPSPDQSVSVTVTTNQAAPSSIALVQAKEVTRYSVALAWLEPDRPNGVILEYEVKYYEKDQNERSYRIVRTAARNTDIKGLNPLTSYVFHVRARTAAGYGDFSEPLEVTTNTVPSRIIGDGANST
Sequence of EphA4 (Homo sapiens, UniProt P54764) (P54764 20-986, species assumed): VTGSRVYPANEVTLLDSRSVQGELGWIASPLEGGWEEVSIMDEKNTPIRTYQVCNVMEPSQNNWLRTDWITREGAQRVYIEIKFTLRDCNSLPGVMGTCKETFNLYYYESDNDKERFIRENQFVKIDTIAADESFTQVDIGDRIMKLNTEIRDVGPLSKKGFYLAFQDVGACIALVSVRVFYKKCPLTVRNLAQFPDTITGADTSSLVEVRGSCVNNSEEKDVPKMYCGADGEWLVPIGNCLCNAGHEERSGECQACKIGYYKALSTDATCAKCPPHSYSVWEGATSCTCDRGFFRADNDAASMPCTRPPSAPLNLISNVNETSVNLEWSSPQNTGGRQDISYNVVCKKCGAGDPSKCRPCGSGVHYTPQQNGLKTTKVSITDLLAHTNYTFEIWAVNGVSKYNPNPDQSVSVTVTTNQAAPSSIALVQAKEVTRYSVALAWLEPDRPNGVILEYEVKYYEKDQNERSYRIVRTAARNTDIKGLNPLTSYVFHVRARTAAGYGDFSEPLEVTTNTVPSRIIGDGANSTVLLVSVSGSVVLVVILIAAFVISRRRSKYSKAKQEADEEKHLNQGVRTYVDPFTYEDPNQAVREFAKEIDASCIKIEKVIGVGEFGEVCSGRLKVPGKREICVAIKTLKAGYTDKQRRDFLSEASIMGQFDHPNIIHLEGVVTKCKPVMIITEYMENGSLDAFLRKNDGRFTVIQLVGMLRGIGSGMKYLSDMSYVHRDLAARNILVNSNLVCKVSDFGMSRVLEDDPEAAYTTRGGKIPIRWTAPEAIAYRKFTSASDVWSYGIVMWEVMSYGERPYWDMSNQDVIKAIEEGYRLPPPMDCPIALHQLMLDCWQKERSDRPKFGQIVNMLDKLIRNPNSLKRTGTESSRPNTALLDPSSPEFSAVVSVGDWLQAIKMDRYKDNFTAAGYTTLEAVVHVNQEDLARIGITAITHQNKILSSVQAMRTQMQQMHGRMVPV

## CC(C)[C@@H]1NC(=O)[C@@H](NC(=O)[C@H](Cc2ccc(O)cc2)NC(=O)[C@@H]2CCCN2C(=O)[C@H](C)N)CSSC[C@@H](C(=O)O)NC(=O)[C@H](CO)NC(=O)[C@H](Cc2c[nH]c3ccccc23)NC(=O)[C@H](CO)NC(=O)CNC(=O)[C@H](CCCNC(=N)N)NC(=O)[C@H](Cc2ccc(O)cc2)NC1=O [APY, reference compound]
[1]; mouse, plasma, Half-life (t1/2) Plasma, mouse plasma, 37° C., loss of antagonistic activity
  half-life at 200 μM: 0.267 h

## CC(C)[C@@H]1NC(=O)[C@@H](NC(=O)[C@H](Cc2ccc(O)cc2)NC(=O)[C@@H]2CCCN2C(=O)[C@H](C)N)CSSC[C@@H](C(N)=O)NC(=O)[C@H](CO)NC(=O)[C@H](Cc2c[nH]c3ccccc23)NC(=O)[C@H](CO)NC(=O)[C@H](C)NC(=O)[C@H](CCCNC(=N)N)NC(=O)[C@H](Cc2ccc(O)cc2)NC1=O [APY-Ala8.am]
[2]; relative to APY.am
  loss in potency on replacement of Gly8: about 30 fold

## CC(C)[C@@H]1NC(=O)[C@@H](NC(=O)[C@H](Cc2ccc(O)cc2)NC(=O)[C@@H]2CCCN2C(=O)[C@H](C)N)CSSC[C@@H](C(N)=O)NC(=O)[C@H](CO)NC(=O)[C@H](Cc2c[nH]c3ccccc23)NC(=O)[C@H](CO)NC(=O)[C@@H](C)NC(=O)[C@H](CCCNC(=N)N)NC(=O)[C@H](Cc2ccc(O)cc2)NC1=O [APY-DAla8.am]
[2]
  effect of Gly8 replacement on potency: did not substantially affect potency

## CC(C)[C@@H]1NC(=O)[C@@H](NC(=O)[C@H](Cc2ccc(O)cc2)NC(=O)[C@@H]2CCCN2C(=O)[C@H](C)N)CSSC[C@@H](C(N)=O)NC(=O)[C@H](CO)NC(=O)[C@H](Cc2c[nH]c3ccccc23)NC(=O)[C@H](CO)NC(=O)CCNC(=O)[C@H](CCCNC(=N)N)NC(=O)[C@H](Cc2ccc(O)cc2)NC1=O [APY-βAla8.am, APYCVYRβASWSC-am]
[3]
  inhibition of other Eph receptors: does not inhibit other Eph receptors
[1]; relative to KYL and APY
  increase in stability: 2-8 fold
[4]
  half-life at 200 μM: 0.5 to 3 h
[5]
  cytotoxicity (MTT): did not reveal significant cytotoxicity; also recorded: does not have detectable cytotoxic effects
[6]
  half-life at 200 μM: 0.5 to 3 h
[7]
  half-life at 200 μM: ~2 h

## CC(C)[C@@H]1NC(=O)[C@@H](NC(=O)[C@H](Cc2ccc(O)cc2)NC(=O)[C@@H]2CCCN2C(=O)[C@@H](C)N)CSSC[C@@H](C(N)=O)NC(=O)[C@H](CO)NC(=O)[C@H](Cc2c[nH]c3ccccc23)NC(=O)[C@H](CO)NC(=O)CCNC(=O)[C@H](CCCNC(=N)N)NC(=O)[C@H](Cc2ccc(O)cc2)NC1=O [DAla1-PY-βAla8.am, D-APYCVYRβASWSC-am]
[6]
  half-life at 200 μM: ~72 h
[7]
  half-life at 200 μM: ~72 h

## KYLPYWPVLSSL [KYL]
[8]
  Kd: 800 to 1000 nM
[9]
  half-life: 0.183 h

Reference: patent US10322161B2, “EPHA4 cyclic peptide antagonists for neuroprotection and neural repair” (Sanford Burnham Prebys Medical Discovery Institute, priority 2014, dated 2019)
